Laboratory results reported in PMC7762591, “AmOctα2R: Functional Characterization of a Honeybee Octopamine Receptor Inhibiting Adenylyl Cyclase Activity” (International Journal of Molecular Sciences, 2020).
Entries after “also recorded” stand apart in the source; their conditions may differ. Read-outs that look alike come from different tables or passages of the source.

Assays:
[1] = target: T1, AmOctα2R-HA (Apis mellifera, UniProt A0A7M7FZR9); experiment: Antagonist concentration-response on tyramine-activated AmOctα2R-HA in flpTM cells; format: cell-based
Protocol: The ability of various potential antagonists for impairing AmOctα2R-HA activity was assessed in a similar way. […] Ligand concentrations that led to the half-maximal inhibition of AmOctα2R-HA (IC50) were determined from the concentration–response curves and are summarized in Table 2.
(§1) For AmOctα2R-HA expression and pharmacological analysis, we used a human embryonic kidney (HEK293; flpIn cells; Invitrogen/ThermoFisher Scientific; #750-07)-based cell line that was transfected with a gene encoding a variant of the A2-subunit of the olfactory CNG ion channel (flpTM cells), provided by Sibion biosciences, Jülich, Germany. These flpTM cells were transfected with 3 µg, 8 µg, or 12 µg of the pcAmOctα2R-HA construct by a modified calcium phosphate method following a previously established protocol. Transfected cells were selected in the presence of the antibiotics G418 (1 mg/mL) and hygromycin (100 µg/mL). Expression of AmOctα2R-HA was monitored by Western blotting and immunocytochemistry using anti-HA antibodies (Roche/Sigma-Aldrich/Merck).
(§2) A stably transfected cell line was used to examine AmOctα2R-HA receptor activity by Ca^2+ imaging. Control measurements were performed in the parental (flpTM) cell line. Changes in [cAMP]i were registered indirectly via co-expressed CNG channels that were opened by cAMP and cause an influx of extracellular Ca^2+ [30, 32, 48]. Changes in [Ca^2+]i were monitored with the Ca^2+-sensitive fluorescent dye Fluo-4. Cells were grown in 96-well dishes to a density of approximately 2 × 10^4 cells per well and were loaded at room temperature with Fluo-4 AM as described previously. After 90 min, the loading solution was substituted with a dye-free extracellular solution (ECS; 120 mM NaCl, 5 mM KCl, 2 mM MgCl2, 2 mM CaCl2, 10 mM HEPES, and 10 mM glucose, pH 7.4 (NaOH)) containing 100 µM IBMX. The plate was transferred into a fluorescence reader (FLUOstar Omega, BMG Labtech, Ortenberg, Germany) to monitor Fluo-4 fluorescence. The excitation wavelength was 485 nm. Fluorescence emission was detected at 520 nm. Concentration series of various biogenic amines and synthetic receptor ligands were added, once Fluo-4 fluorescence intensity reached a stable value in each well. The changes in Fluo-4 fluorescence were recorded automatically. Concentration–response curves were established from at least three independent experiments with quadruplicate measurements.

[2] = target: T1, AmOctα2R-HA; experiment: Antagonist concentration-response on octopamine-activated AmOctα2R-HA in flpTM cells; format: cell-based
Protocol: as §1, §2
Table S3. Mean values for half-maximal inhibition (IC50 [M] and log IC50 ± SD) for substances with antagonistic activity on octopamine-activated AmOctα2R. For each substance at least […] independent experiments with quadruplicate measurements were performed. Values were obtained from non-linear fitting of the data from concentration-response curves (GraphPad Prism 5.04).
Substance IC50 [M] log IC50 […]
Biol Direct. 2008, 3, 20. […]
Int.

[3] = target: T1, AmOctα2R-HA; experiment: Agonist effects on NKH 477-stimulated cAMP (Fluo-4 Ca2+ fluorescence via co-expressed CNG channel) in AmOctα2R-HA-expressing flpTM cells; format: cell-based; settings: for effect on NKH 477-stimulated cAMP production (Ca2+-dependent fluorescence signal): biogenic amines 10^−6 M each
Protocol: as §1, §2

[4] = system: nontransfected flpTM cells; experiment: Control measurements of Fluo-4 fluorescence in nontransfected (parental) flpTM cells; format: cell-based, human
Protocol: as §1
A stably transfected cell line was used to examine AmOctα2R-HA receptor activity by Ca^2+ imaging. […] Changes in [Ca^2+]i were monitored with the Ca^2+-sensitive fluorescent dye Fluo-4. […] The plate was transferred into a fluorescence reader (FLUOstar Omega, BMG Labtech, Ortenberg, Germany) to monitor Fluo-4 fluorescence. […] Fluorescence emission was detected at 520 nm. Concentration series of various biogenic amines and synthetic receptor ligands were added, once Fluo-4 fluorescence intensity reached a stable value in each well. The changes in Fluo-4 fluorescence were recorded automatically. […]

[5] = system: DmOctα2R; parameters: method as in PMID 28942992; settings: dose-dependent activation of DmOctα2R; cited from earlier work
[6] = tyramine-activated (10 µM tyramine)
[7] = tyramine-activated (10 µM tyramine), 10 µM NKH 477, 100 µM IBMX, read-out: IC50 [M], mean value for half-maximal inhibition
[8] = block of the action of octopamine, second value of the pair, read-out: IC50
[9] = log IC50 ± SD, log of IC50 in M, octopamine-activated (3 × 10^−7 M octopamine)
[10] = log of IC50 in M, tyramine-activated (10 µM tyramine), read-out: logIC50 ± SD (converted)
[11] = log of IC50 in M, octopamine-activated (3 × 10^−7 M octopamine), read-out: log IC50 ± SD (converted)
[12] = log of EC50 in M, mean of all experiments, octopamine n = 7, tyramine n = 11, read-out: logEC50 ± SD, mean value (converted)
[13] = log of EC50 in M, single concentration-response curve (Figures 4 and 6), read-out: logEC50 ± SD, typical experiment (converted)
[14] = mean of all experiments, octopamine n = 7, tyramine n = 11, 10 µM NKH 477, 100 µM IBMX, read-out: EC50 [M], mean value for half-maximal stimulation
[15] = single concentration-response curve (Figures 4 and 6), octopamine fitted from 10^−9 M to 3 × 10^−6 M, read-out: EC50 (half-maximal reduction of cAMP / activation), typical experiment

T1 sequence (A0A7M7FZR9 entry or part of it): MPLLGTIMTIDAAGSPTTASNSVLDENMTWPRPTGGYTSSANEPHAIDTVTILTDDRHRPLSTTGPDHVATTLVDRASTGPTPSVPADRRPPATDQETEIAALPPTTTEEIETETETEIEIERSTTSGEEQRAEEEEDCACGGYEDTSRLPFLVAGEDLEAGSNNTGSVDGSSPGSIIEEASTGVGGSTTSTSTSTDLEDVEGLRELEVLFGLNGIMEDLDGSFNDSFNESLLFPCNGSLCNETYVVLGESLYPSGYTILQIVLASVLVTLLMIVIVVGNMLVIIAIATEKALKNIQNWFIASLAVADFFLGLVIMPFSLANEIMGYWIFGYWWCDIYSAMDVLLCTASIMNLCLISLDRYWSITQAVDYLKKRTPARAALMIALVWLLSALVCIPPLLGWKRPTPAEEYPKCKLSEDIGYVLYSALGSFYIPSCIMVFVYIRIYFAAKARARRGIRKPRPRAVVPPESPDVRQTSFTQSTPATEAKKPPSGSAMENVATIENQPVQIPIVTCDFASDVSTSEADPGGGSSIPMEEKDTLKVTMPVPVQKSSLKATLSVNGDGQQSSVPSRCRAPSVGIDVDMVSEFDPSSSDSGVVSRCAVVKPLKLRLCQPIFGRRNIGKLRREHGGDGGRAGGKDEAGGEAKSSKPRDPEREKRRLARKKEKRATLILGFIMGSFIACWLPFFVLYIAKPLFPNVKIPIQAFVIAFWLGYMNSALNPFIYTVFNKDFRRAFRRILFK

NCCc1c[nH]c2ccc(C(N)=O)cc12 [5-CT, 5-carboxamidotryptamine]
logIC50 ± SD ([1]; log of IC50 in M, tyramine-activated (10 µM tyramine)): −8.48 ± 0.20 | Maximal Inhibition [%] [1, 6]: 10.8% | IC50 [1, 7]: 4.16e-09 M | IC50 [2, 8]: 0.27 nM | log IC50 ± SD ([2]; log of IC50 in M, octopamine-activated (3 × 10^−7 M octopamine)): -9.57 ± 0.21

COc1ccc2[nH]cc(CCN)c2c1 [5-MT, 5-methoxytryptamine]
IC50 ([1]; IC50, block of the action of tyramine, first value of the printed pair): 2.06e-08 M | IC50 ([1]; logIC50 ± SD, log of IC50 in M, tyramine-activated (10 µM tyramine)): 1.91e-08 M | Maximal Inhibition [%] [1, 6]: 20.3% | IC50 ([2]; IC50, block of the action of octopamine, second value of the pair): 836 nM | IC50 [2, 9]: 832 nM

CCCN(CCC)C1CCc2cccc(O)c2C1 (stereo not drawn) [8-OH-DPAT, 8-Hydroxy-2-(dipropylamino)tetralin]
IC50 [1]: 7.08e-07 M | Maximal Inhibition [%] [1, 6]: 7.21% | IC50 [2, 9]: 166 nM

Cc1nn(C)c(C)c1-c1cccc2c1CC[C@H](N(C)C)C2 [AS-19]
IC50 [M], mean value for half-maximal inhibition ([1]; tyramine-activated (10 µM tyramine), 10 µM NKH 477, 100 µM IBMX): did not show any effect; also recorded: no effect

NCCc1ccc(O)c(O)c1 [dopamine]
effect on NKH 477-stimulated cAMP production (Ca2+-dependent fluorescence signal) [3]: no effect

NC1=NCC2c3ccccc3Cc3ccccc3N12 (stereo not drawn) [epinastine]
IC50 [1, 10]: 1.78e-08 M | Maximal Inhibition [%] [1, 6]: 17.31% | IC50 [2, 11]: 16.2 nM

O=C(c1ccc(F)cc1)C1CCN(CCn2c(=O)[nH]c3ccccc3c2=O)CC1 [ketanserin]
IC50 [1, 10]: 5.13e-07 M | Maximal Inhibition [%] [1, 6]: 17.11% | IC50 [2, 11]: 324 nM

NCC(O)c1ccc(O)cc1 (stereo not drawn) [octopamine]
octopamine concentration at which an increase in the fluorescence signal was observed ([3]; AmOctα2R-HA-expressing flpTM cells, U-shaped curve, 10 µM NKH 477, 100 µM IBMX): ≥ 3 µM | Emax at 1 µM ([3]; at 10^−6 M octopamine, relative to 10 µM NKH 477 (=100%), read-out: maximal reduction of cAMP synthesis): ~25% | effect on NKH 477-stimulated cAMP production (Ca2+-dependent fluorescence signal) [3]: decrease in the Ca^2+-dependent fluorescence signal | EC50 [3, 12]: 3.72e-08 M | EC50 [3, 13]: 1.17e-07 M | EC50 [3, 14]: 5.87e-08 M | specificity for octopamine over tyramine (difference in EC50) ([3]; ratio of EC50 values): ~ 30 fold | EC50 [3, 15]: 1.17e-07 M | octopamine concentration leading to an increase in Fluo-4 fluorescence ([4]; in the presence of NKH 477): ≥ 300 nM

Cc1ccc(N(CC2=NCCN2)c2cccc(O)c2)cc1 [phentolamine]
IC50 [1, 10]: 5.01e-09 M | Maximal Inhibition [%] [1, 6]: 16.1% | IC50 [1, 7]: 5.6e-09 M | IC50 [2, 8]: 8.21 nM | IC50 [2, 11]: 8.13 nM

NCCc1c[nH]c2ccc(O)cc12 [serotonin, 5-hydroxytryptamine]
activation of AmOctα2R [3]: failed to activate | effect on NKH 477-stimulated cAMP production (Ca2+-dependent fluorescence signal) [3]: no effect | EC50 [5]: 1040 nM

NCCc1ccc(O)cc1 [tyramine]
effect on NKH 477-stimulated cAMP production (Ca2+-dependent fluorescence signal) [3]: decrease in the Ca^2+-dependent fluorescence signal | EC50 [3, 12]: 1.66e-06 M | EC50 [3, 13]: 1.63e-06 M | EC50 [3, 14]: 1.85e-06 M | Emax ([3]; saturated at tyramine concentration of ≥3 × 10^−5 M, relative to 10 µM NKH 477 (=100%), read-out: reduction of cAMP signal at saturation): ~17% | EC50 [3, 15]: 1.63e-06 M | change in the fluorescence signal upon application [4]: no change in the fluorescence signal

COC(=O)[C@@H]1[C@H]2C[C@H]3c4[nH]c5ccccc5c4CCN3C[C@@H]2CC[C@@H]1O [yohimbine]
IC50 [1]: 7.59e-08 M | Maximal Inhibition [%] [1, 6]: 14.3% | IC50 [2, 9]: 363 nM
